The source made the active and inactive calls. No cut-off for these calls is given here.
Assays:
[1] = molecular target: Cellular tumor antigen p53 (Homo sapiens) (UniProt P04637); experiment: Activation of p53 pathway in human MOLM-13 cells assessed as increase in PUMA mRNA level incubated for 24 hrs by qPCR analysis; type: cell-based; details: filed as activator, dose 0.038-0.6 µM
MOLM-13 [2] = experiment: Induction of apoptosis in human MOLM-13 cells assessed as late apoptotic cells at 0.1 uM incubated for 24 hrs by Annexin V-FITC/PI staining based flow cytometry (reference value: 0.457 %); type: functional
MOLM-13 [3] = experiment: Induction of apoptosis in human MOLM-13 cells assessed as necrotic cells at 0.3 uM incubated for 24 hrs by Annexin V-FITC/PI staining based flow cytometry (reference value: 0.020 %); type: functional
HCT-116 = experiment: cells; details: Homo sapiens, HCT-116, 96 h
[4] = Selectivity index, ratio of IC50 for HEK293 cells to IC50 for human HeLa cells; type: toxicity; details: HEK293 cells versus HeLa cells, read-out: Ratio IC50
[5] = molecular target: Cellular tumor antigen p53 (Homo sapiens) (UniProt P04637); experiment: Activation of p53 pathway in human A549 cells assessed as increase in p53 level at 1 uM incubated for 24 hrs by Western blot analysis; type: cell-based; details: filed as activator
[6] = molecular target: Cellular tumor antigen p53 (Homo sapiens) (UniProt P04637); experiment: Activation of p53 pathway in human MOLM-13 cells assessed as increase in MDM2 level incubated for 24 hrs by Western blot analysis; type: cell-based; details: filed as activator, dose 0.038-0.6 µM
MOLM-13 [7] = experiment: Induction of apoptosis in human MOLM-13 cells assessed as viable cells at 8.1 uM incubated for 24 hrs by Annexin V-FITC/PI staining based flow cytometry (reference value: 95.1 %); type: functional; details: read-out: Activity
[8] = molecular target: Cellular tumor antigen p53 (Homo sapiens) (UniProt P04637); experiment: Activation of p53 pathway in human HCT-116 cells assessed as increase in MDM2 level at 1 uM incubated for 24 hrs by Western blot analysis; type: cell-based; details: filed as activator
[9] = molecular target: Cellular tumor antigen p53 (Homo sapiens) (UniProt P04637); experiment: Activation of p53 pathway in human MOLM-13 cells assessed as increase in p21 level incubated for 24 hrs by Western blot analysis; type: cell-based; details: filed as activator, dose 0.038-0.6 µM
SW480 = experiment: cells; details: Homo sapiens, SW480, 96 h
MOLM-13 [10] = experiment: Induction of apoptosis in human MOLM-13 cells assessed as late apoptotic cells at 2.7 uM incubated for 24 hrs by Annexin V-FITC/PI staining based flow cytometry (reference value: 0.457 %); type: functional
[11] = Selectivity index, ratio of IC50 for HEK293 cells to IC50 for human SW480 cells
MOLM-13 [12] = experiment: Induction of apoptosis in human MOLM-13 cells assessed as viable cells at 2.7 uM incubated for 24 hrs by Annexin V-FITC/PI staining based flow cytometry (reference value: 95.1 %); type: functional; details: read-out: Activity
MOLM-13 [13] = experiment: Induction of apoptosis in human MOLM-13 cells assessed as early apoptotic cells at 0.3 uM incubated for 24 hrs by Annexin V-FITC/PI staining based flow cytometry (reference value: 4.44 %); type: functional
MOLM-13 [14] = experiment: Induction of apoptosis in human MOLM-13 cells assessed as necrotic cells at 8.1 uM incubated for 24 hrs by Annexin V-FITC/PI staining based flow cytometry (reference value: 0.020 %); type: functional
MOLM-13 [15] = experiment: cells; details: Homo sapiens, MOLM-13, 48 h

Sequence of Cellular tumor antigen p53 (Homo sapiens) (P04637 whole entry, looked up): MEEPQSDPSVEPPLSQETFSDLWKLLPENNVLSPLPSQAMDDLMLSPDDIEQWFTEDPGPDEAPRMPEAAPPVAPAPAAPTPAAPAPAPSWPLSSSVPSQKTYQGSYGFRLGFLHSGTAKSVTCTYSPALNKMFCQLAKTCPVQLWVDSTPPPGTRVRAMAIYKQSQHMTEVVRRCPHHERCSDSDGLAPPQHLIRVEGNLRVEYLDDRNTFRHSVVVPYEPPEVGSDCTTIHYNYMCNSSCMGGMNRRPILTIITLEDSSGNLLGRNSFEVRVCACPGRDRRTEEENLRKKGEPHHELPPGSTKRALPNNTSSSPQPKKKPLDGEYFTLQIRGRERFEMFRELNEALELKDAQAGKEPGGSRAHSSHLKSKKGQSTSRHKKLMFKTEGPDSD

SMILES: COc1cc(C(=O)O)ccc1N1CN2[C@@H](CC(C)(C)C)[C@@]3(CNc4cc(Cl)ccc43)[C@@H](c3cccc(Cl)c3)[C@@H]2C1=O
- Activity [1]: Dose-Dependent Effect
- Activity (MOLM-13 [2]): 0.797%
- Activity (MOLM-13 [3]): 0.179%
- IC50 (HCT-116): 28.1 nM
- selectivity ratio [4]: 0.8
- Activity [5]: Active
- Activity [6]: Dose-Dependent Effect
- viability at 8.1 µM (MOLM-13 [7]): 27.4%
- Activity [8]: Active
- Activity [9]: Dose-Dependent Effect
- IC50 (SW480): 5940 nM
- Activity (MOLM-13 [10]): 1.18%
- Ratio IC50 [11]: 1.6
- viability at 2.7 µM (MOLM-13 [12]): 30.1%
- Activity (MOLM-13 [13]): 24.4%
- Activity (MOLM-13 [14]): 0.176%
- IC50 (MOLM-13 [15]): 0.8 nM

Source: ChEMBL document CHEMBL5512651, “Synthesis and biological evaluation of 4-imidazolidinone-containing compounds as potent inhibitors of the MDM2/p53 interaction” (Eur J Med Chem, 2024)
